Laboratory results from patent publication EP0844825B1, “INSECTICIDAL N-(SUBSTITUTED ARYLMETHYL)-4- BIS(SUBSTITUTED PHENYL OR PYRIDYL)METHYL]PIPERIDINES” (FMC CORPORATION, priority 1995, dated 1996).
Like-named read-outs stand apart in the source and are kept apart here.

Tests used:
[1] = test system: tobacco budworm (Heliothis virescens [Fabricius]); assay: Diet test: test chemical incorporated into artificial diet of tobacco budworm larvae, 5-day exposure; type: in vivo; conditions: for IC50 / LC50 / mortality at 100 µM / pest or weed control at 100 µM: Heliothis virescens, 120 h; for LC50: read-out: pLC50 (converted); for mortality at 100 µM / pest or weed control at 100 µM: feed or water; for mortality at 100 µM: read-out: Percent Mortality; for pest or weed control at 100 µM / Percent Growth Inhibition: rate of application 4 (negative log of molar concentration in the diet), second instar larvae, 25°C; for pest or weed control at 100 µM: read-out: Percent Growth Inhibition
Method: Candidate insecticides were incorporated into an artificial diet for evaluation of insecticidal activity against the tobacco budworm (Heliothis virescens [Fabricius]) in the following manner. Stock solutions of test chemical in dimethyl sulfoxide, ranging from […], were prepared for each rate of application. One hundred microliters of each of the stock solutions was manually stirred into 50 mL of a molten (65-70°C) wheat germ-based artificial diet. The 50 mL of molten diet containing the test chemical was poured evenly into twenty wells in the outer two rows on each side of a twenty-five well, five row plastic tray. (Each well in the tray was about 1 cm in depth, with an opening of 3 cm by 4 cm at the lip.) Molten diet containing only dimethyl sulfoxide at the levels used in the test chemical-treated diet was poured into the five wells in the third (center) row of the tray. Each tray therefore contained one test chemical at a single rate of application, together with an untreated control. The rates of application, expressed as the negative log of the molar concentration, and the corresponding concentrations of the stock solution prepared for each rate are shown below:
Single second instar tobacco budworm larvae, selected at a stage of growth at which they uniformly weigh about 5 mg each, were placed in each well. Upon completion of infestation, a sheet of clear plastic was heat-sealed over the top of the tray by use of a common household flat.iron. The trays were held at 25°C at 60% relative humidity for five days in a growth chamber. Lighting was set at 14 hours of light and 10 hours of darkness. After the 5-day exposure period, mortality counts were taken, and the surviving insects were weighed. From the weights of the surviving insects that fed on the treated diet as compared to those insects that fed on the untreated diet, the percent growth inhibition caused by each test chemical was determined. […] Also, where possible, the negative log of the concentration of the test chemical that provided 50% mortality (pLC50) was determined.

[2] = test system: tobacco budworm (Heliothis veriscens [Fabricius]); assay: Foliar spray test on chick pea plants, tobacco budworm, 96 hour exposure; type: in vivo, Heliothis virescens; conditions: rate of application 100 ppm, dead plus moribund insects, * = average of more than one test
Method: (§1) Candidate insecticides with high pl50 values from the diet test were tested for insecticidal activity in foliar evaluations against tobacco budworm, beet armyworm (Spodoptera exigua [Hubner]), and cabbage looper (Trichoplusia ni [Hubner])
(§2) In these tests against tobacco budworm and beet armyworm, nine-day-old chick pea plants (Cicer arietinum) were sprayed at 20 psi to runoff on both upper and lower leaf surfaces with solutions of test chemical to provide application rates as high as 1000 ppm of test chemical. The solvent used to prepare the solutions of test chemical was 10% acetone or methanol (v/v) and 0.1% of the surfactant octylphenoxypolyethoxyethanol in distilled water. Four replicates, each containing one chick pea plant, for each rate of application of test chemical were sprayed. The treated plants were transferred to a hood, where they were kept until the spray had dried.
(§3) The four chick pea plants for each replicate treated with test chemical as described above were removed from their pots by cutting the stems just above the soil line. The excised leaves and stems from the four plants in each replicate were placed in individual 8-ounce paper cups, each containing a moistened filter paper. Five second-instar (6 days old) tobacco budworms or beet armyworms (7-8 days old) were counted into each cup, taking care not to cause injury. An opaque plastic lid was placed on each cup, which was then held in a growth chamber for a 96 hour exposure period at 25°C and 50% relative humidity. At the end of the 96 hour exposure period the cups were opened, and the numbers of dead, moribund, and live insects were counted. Using the insect counts, the efficacy of the test chemical was expressed in percent control. Percent control is derived from the total number of dead insects (TD) plus the total number of moribund insects (TM) as compared to the total number of insects (TI) in the test: % Control =(TD+TM)/(TI)x 100 [formula]
(§4) The condition of the test plants was also observed for phytotoxicity and for reduction of feeding damage as compared to an untreated control.

[3] = test system: cabbage looper (Trichoplusia ni [Hubner]); assay: Foliar spray test on pinto bean plants, cabbage looper, 96 hour exposure; type: in vivo; conditions: rate of application 100 ppm, dead plus moribund insects, * = average of more than one test
Method: as §1, §2, §3, §4
Foliar tests with cabbage looper were conducted in the same manner as described above, the difference being that pinto bean plants (Phaseolus vulgaris) were used in place of chick pea plants.

[4] = test system: beet armyworm (Spodoptera exigua [Hubner]); assay: Foliar spray test on chick pea plants, beet armyworm, 96 hour exposure; type: in vivo; conditions: rate of application 100 ppm, dead plus moribund insects, * = average of more than one test
Method: as §1, §2, §3, §4

[5] = negative log of the concentration that provides 50% growth inhibition, by linear regression, 5 days, * = average of more than one test, read-out: pl50 (converted)
[6] = negative log of the concentration that provides 50% mortality, 5 days, * = average of more than one test
[7] = 5 days, * = average of more than one test
[8] = negative log of the concentration that provides 50% growth inhibition, by linear regression, 5 days, * = average of more than one test

SMILES | IC50 [1, 5] | LC50 [1, 6] | mortality at 100 µM [1] | pest or weed control at 100 µM [1, 7] | pl50 [1, 8] | Percent Control TBW [2] | Percent Control CL [3] | Percent Control BAW [4] | Percent Growth Inhibition [1, 7] | LC50 [1] | IC50 ([1]; read-out: pl50)
Cn1nnc(-c2ccc(CN3CCC(C(O)(c4ccc(OC(F)(F)F)cc4)c4ccc(OC(F)(F)F)cc4)CC3)cc2)n1 [Compound 9, N-[4-(2-methyl-2H-tetrazol-5-yl)phenylmethyl]-4-[bis(4-trifluoromethoxyphenyl)hydroxymethyl]piperidine] | ≤ 0.316 µM | 2.51 µM | 100% | 100% | 6.6 | 100% | 100% | 100% | – | – | –
Cn1nnc(-c2ccc(CN3CCC(C(O)(c4ccc(C(F)(F)F)cc4)c4ccc(C(F)(F)F)cc4)CC3)cc2)n1 [Compound 31, N-[4-(2-methyl-2H-tetrazol-5-yl)phenylmethyl]-4-[bis(4-trifluoromethylphenyl)hydroxymethyl]piperidine] | ≤ 0.316 µM | 2.51 µM | 100% | 100% | – | 100% | 100% | 100* % | – | – | –
Cn1nnc(-c2ccc(C[N+]3([O-])CCC(C(O)(c4ccc(C(F)(F)F)cc4)c4ccc(C(F)(F)F)cc4)CC3)cc2)n1 (centres unmarked) [Compound 32, N-[4-(2-methyl-2H-tetrazol-5-yl)phenylmethyl]-4-[bis(4-trifluoromethylphenyl)hydroxymethyl]piperidine N-oxide] | ≤ 0.316 µM | 2.51 µM | 100% | 100% | – | 100% | 100% | 100* % | – | – | –
CCn1nnc(-c2ccc(CN3CCC(C(O)(c4ccc(C(F)(F)F)cc4)c4ccc(C(F)(F)F)cc4)CC3)cc2)n1 [Compound 33] | ≤ 0.316 µM | 0.794 µM | 100% | – | 6.6 | 100% | 95% | 100% | 99% | – | –
CCn1nnc(-c2ccc(C[N+]3([O-])CCC(C(O)(c4ccc(C(F)(F)F)cc4)c4ccc(C(F)(F)F)cc4)CC3)cc2)n1 (centres unmarked) [Compound 34] | ≤ 0.316 µM | 1.26 µM | 100% | – | – | 100% | 100% | 100% | 100% | – | –
CCCOc1ccc(CN2CCC(C(O)(c3ccc(C(F)(F)F)cc3)c3ccc(C(F)(F)F)cc3)CC2)cc1 [Compound 102] | – | – | 100% | – | – | 98* % | 100* % | 100* % | 100% | 3.16 µM | < 1 µM
